Data from patent publication US20070004660A1, “Synergistic Modulation of Flt3 Kinase Using Alkylquinolines and Alkylquinazolines” (priority 2005, published 2007).

Target: T1, wild-type FLT3 receptor (Homo sapiens, UniProt P36888)
T1 construct: host or cells: Baf3 (murine B cell lymphoma line), stably transfected
T1 sequence (P36888 27-993): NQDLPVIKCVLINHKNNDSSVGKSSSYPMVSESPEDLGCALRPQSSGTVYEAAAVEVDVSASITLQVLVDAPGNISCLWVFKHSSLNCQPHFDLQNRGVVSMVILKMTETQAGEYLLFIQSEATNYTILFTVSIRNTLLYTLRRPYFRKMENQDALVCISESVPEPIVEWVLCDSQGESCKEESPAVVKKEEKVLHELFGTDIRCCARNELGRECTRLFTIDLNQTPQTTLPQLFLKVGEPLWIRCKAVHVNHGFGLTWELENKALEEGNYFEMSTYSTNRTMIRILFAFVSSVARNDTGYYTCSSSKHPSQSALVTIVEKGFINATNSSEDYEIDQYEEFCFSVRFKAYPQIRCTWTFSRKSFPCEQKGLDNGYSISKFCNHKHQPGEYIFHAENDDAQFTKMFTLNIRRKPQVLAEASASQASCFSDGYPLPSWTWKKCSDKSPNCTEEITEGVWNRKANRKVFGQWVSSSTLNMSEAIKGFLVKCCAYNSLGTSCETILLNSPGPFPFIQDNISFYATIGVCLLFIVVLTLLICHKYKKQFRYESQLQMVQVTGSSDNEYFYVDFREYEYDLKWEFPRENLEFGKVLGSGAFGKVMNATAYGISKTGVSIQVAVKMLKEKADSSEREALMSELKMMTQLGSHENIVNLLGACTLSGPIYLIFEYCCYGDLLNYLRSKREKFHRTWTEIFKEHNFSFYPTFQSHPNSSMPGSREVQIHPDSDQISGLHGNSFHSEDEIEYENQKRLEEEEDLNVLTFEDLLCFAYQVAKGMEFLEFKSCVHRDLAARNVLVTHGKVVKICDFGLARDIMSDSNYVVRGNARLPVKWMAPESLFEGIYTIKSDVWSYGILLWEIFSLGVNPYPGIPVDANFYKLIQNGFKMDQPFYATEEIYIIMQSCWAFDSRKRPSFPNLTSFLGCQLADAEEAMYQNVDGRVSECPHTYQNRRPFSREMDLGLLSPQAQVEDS
Experiment: Cell-based FLT3 receptor ELISA (FLT ligand-induced phosphorylation in Baf3 FLT3 cells)
Settings: 100 ng/mL Flt ligand, uncertainty ±20%
Method in brief: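 Receptor phosphotyrosine measured by sandwich ELISA (anti-FLT3 capture, HRP anti-pTyr, luminescence) in FLT3-transfected murine Baf3 cells given 1 h compound pretreatment and 10 min 100 ng/mL FLT ligand after overnight low-serum starvation; triplicates, IC50 from nonlinear regression.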

SMILES | IC50 [nM]
COc1cc2ncnc(C3CCN(C(=O)Nc4ccc(OC(F)F)cc4)CC3)c2cc1OC [Example 51, 4-(6,7-Dimethoxy-quinazolin-4-yl)-piperidine-1-carboxylic acid (4-difluoromethoxy-phenyl)-amide] | 542
O=C1CCCN1CCOc1ccc2c(C3CCN(C(=O)Nc4ccc(N5CCCC5)cc4)CC3)ncnc2c1 [Example 74, 4-{7-[2-(2-Oxo-pyrrolidin-1-yl)-ethoxy]-quinazolin-4-yl}-piperidine-1-carboxylic acid (4-pyrrolidin-1-yl-phenyl)-amide] | 12
COc1cc2ncnc(C3CCN(C(=O)Nc4ccc(C(C)C)cc4)CC3)c2cc1OC [Example 4, 4-(6,7-Dimethoxy-quinazolin-4-yl)-piperidine-1-carboxylic acid (4-isopropyl-phenyl)-amide] | 56
CC(C)Oc1ccc(NC(=O)N2CCC(c3ncnc4ccc(OCCCN5CCN(C)CC5)cc34)CC2)cc1 [Example 76, 4-{6-[3-(4-Methyl-piperazin-1-yl)-propoxy]-quinazolin-4-yl}-piperidine-1-carboxylic acid (4-isopropoxy-phenyl)-amide] | 96
CN1CCC(COc2ccc3c(C4CCN(C(=O)Nc5ccc(OC6CCC6)nc5)CC4)ncnc3c2)CC1 [Example 107, 4-[7-(1-Methyl-piperidin-4-ylmethoxy)-quinazolin-4-yl]-piperidine-1-carboxylic acid (6-cyclobutoxy-pyridin-3-yl)-amide] | 21
CC(C)Oc1ccc(NC(=O)N2CCC(c3ncnc4cc(N5CCN(C)CC5)ccc34)CC2)cc1 [Example 103, 4-[7-(4-Methyl-piperazin-1-yl)-quinazolin-4-yl]-piperidine-1-carboxylic acid (4-isopropoxy-phenyl)-amide] | 13
CS(=O)(=O)NCCCOc1ccc2c(C3CCN(C(=O)Nc4ccc(OC5CCCC5)nc4)CC3)ncnc2c1 [Example 88, 4-[7-(3-Methanesulfonylamino-propoxy)-quinazolin-4-yl]-piperidine-1-carboxylic acid (6-cyclopentyloxy-pyridin-3-yl)-amide] | 30
CC(C)Oc1ccc(NC(=O)N2CCC(c3ncnc4ccccc34)CC2)cc1 [Example 8, 4-Quinazolin-4-yl-piperidine-1-carboxylic acid (4-isopropoxy-phenyl)-amide] | 851
COc1cc2ncnc(C3CCN(C(=O)Nc4ccc(C5=CCN(C(=O)OC(C)(C)C)CC5)cc4)CC3)c2cc1OC [Example 61, 4-(4-{[4-(6,7-Dimethoxy-quinazolin-4-yl)-piperidine-1-carbonyl]-amino}-phenyl)-3,6-dihydro-2H-pyridine-1-carboxylic acid tert-butyl ester] | 1800
CCOc1ccc(NC(=O)N2CCC(c3ncnc4cc(OC)c(OC)cc34)CC2)cc1 [Example 44, 4-(6,7-Dimethoxy-quinazolin-4-yl)-piperidine-1-carboxylic acid (4-ethoxy-phenyl)-amide] | 163
CC(C)Oc1ccc(NC(=O)N2CCC(c3ncnc4ccc(C#CCN5CCCCC5)cc34)CC2)cc1 [Example 14, 4-[6-(3-Piperidin-1-yl-prop-1-ynyl)-quinazolin-4-yl]-piperidine-1-carboxylic acid (4-isopropoxy-phenyl)-amide] | 186
CC(C)Oc1ccc(NC(=O)N2CCC(c3ncnc4cc(OCCCNS(C)(=O)=O)ccc34)CC2)cc1 [Example 65, 4-[7-(3-Methanesulfonylamino-propoxy)-quinazolin-4-yl]-piperidine-1-carboxylic acid (4-isopropoxy-phenyl)-amide] | 37
CC(C)Oc1ccc(NC(=O)N2CCC(c3ncnc4ccc(C#CCO)cc34)CC2)cc1 [Example 12, 4-[6-(3-Hydroxy-prop-1-ynyl)-quinazolin-4-yl]-piperidine-1-carboxylic acid (4-isopropoxy-phenyl)-amide] | 36
COc1cc2ncnc(C3CCN(C(=O)Nc4ccc(C(C)O)cc4)CC3)c2cc1OC (stereo not shown) [Example 55, 4-(6,7-Dimethoxy-quinazolin-4-yl)-piperidine-1-carboxylic acid [4-(1-hydroxy-ethyl)-phenyl]-amide] | 1000
CC(C)Oc1ccc(NC(=O)N2CCC(c3ncnc4ccc(I)cc34)CC2)cc1 [Example 11, 4-(6-Iodo-quinazolin-4-yl)-piperidine-1-carboxylic acid (4-isopropoxy-phenyl)-amide] | 1400
CC(C)Oc1ccc(NC(=O)N2CCC(c3ncnc4cc(NCCCN5CCN(C)CC5)ccc34)CC2)cc1 [Example 102, 4-{7-[3-(4-Methyl-piperazin-1-yl)-propylamino]-quinazolin-4-yl}-piperidine-1-carboxylic acid (4-isopropoxy-phenyl)-amide] | 5

The remaining lines, values ahead:

IC50 [nM] | SMILES
36 | CC(=O)N1CCN(CCOc2ccc3c(C4CCN(C(=O)Nc5ccc(N6CCOCC6)cc5)CC4)ncnc3c2)CC1 [Example 97, 4-{7-[2-(4-Acetyl-piperazin-1-yl)-ethoxy]-quinazolin-4-yl}-piperidine-1-carboxylic acid (4-morpholin-4-yl-phenyl)-amide]
110 | CS(=O)(=O)OCCCOc1ccc2c(C3CCN(C(=O)Nc4ccc(N5CCOCC5)cc4)CC3)ncnc2c1 [Example 122, Methanesulfonic acid 3-{4-[1-(4-morpholin-4-yl-phenylcarbamoyl)-piperidin-4-yl]-quinazolin-7-yloxy}-propyl ester]
66 | CN1CCCN(CCCOc2ccc3c(C4CCN(C(=O)Nc5ccc(N6CCOCC6)cc5)CC4)ncnc3c2)CC1 [Example 125, 4-{7-[3-(4-Methyl-[1,4]diazepan-1-yl)-propoxy]-quinazolin-4-yl}-piperidine-1-carboxylic acid (4-morpholin-4-yl-phenyl)-amide]
53 | CN1CCC(COc2ccc3c(C4CCN(C(=O)Nc5ccc(N6CCOCC6)nc5)CC4)ncnc3c2)CC1 [Example 108, 4-[7-(1-Methyl-piperidin-4-ylmethoxy)-quinazolin-4-yl]-piperidine-1-carboxylic acid (6-morpholin-4-yl-pyridin-3-yl)-amide]
75 | O=C1CCCN1CCOc1ccc2c(C3CCN(C(=O)Nc4ccc(N5CCOCC5)cc4)CC3)ncnc2c1 [Example 85, 4-{7-[2-(2-Oxo-pyrrolidin-1-yl)-ethoxy]-quinazolin-4-yl}-piperidine-1-carboxylic acid (4-morpholin-4-yl-phenyl)-amide]
19 | CN1CCN(CCCOc2ccc3c(C4CCN(C(=O)Nc5ccc(N6CCOCC6)nc5)CC4)ncnc3c2)CC1 [Example 80, 4-{7-[3-(4-Methyl-piperazin-1-yl)-propoxy]-quinazolin-4-yl}-piperidine-1-carboxylic acid (6-morpholin-4-yl-pyridin-3-yl)-amide]
63 | O=C(Nc1ccc(N2CCOCC2)cc1)N1CCC(c2ncnc3cc(OCCCN4CCCC4)ccc23)CC1 [Example 124, 4-[7-(3-Pyrrolidin-1-yl-propoxy)-quinazolin-4-yl]-piperidine-1-carboxylic acid (4-morpholin-4-yl-phenyl)-amide]
37 | O=C(Nc1ccc(N2CCOCC2)cc1)N1CCC(c2ncnc3cc(OCCCN4CCC[C@H]4CO)ccc23)CC1 [Example 119, (S)-4-{7-[3-(2-Hydroxymethyl-pyrrolidin-1-yl)-propoxy]-quinazolin-4-yl}-piperidine-1-carboxylic acid (4-morpholin-4-yl-phenyl)-amide]
20 | COCCCOc1ccc2c(C3CCN(C(=O)Nc4ccc(N5CCOCC5)cc4)CC3)ncnc2c1 [Example 78, 4-[7-(3-Methoxy-propoxy)-quinazolin-4-yl]-piperidine-1-carboxylic acid (4-morpholin-4-yl-phenyl)-amide]
243 | O=C(Nc1ccc(N2CCOCC2)cc1)N1CCC(c2ncnc3cc(OCCN4CCOCC4)ccc23)CC1 [Example 96, 4-[7-(2-Morpholin-4-yl-ethoxy)-quinazolin-4-yl]-piperidine-1-carboxylic acid (4-morpholin-4-yl-phenyl)-amide]
25 | O=C(Nc1ccc(N2CCCC2)nc1)N1CCC(c2ncnc3cc(OCCN4CCOCC4)ccc23)CC1 [Example 95, 4-[7-(2-Morpholin-4-yl-ethoxy)-quinazolin-4-yl]-piperidine-1-carboxylic acid (6-pyrrolidin-1-yl-pyridin-3-yl)-amide]
6 | O=C(Nc1ccc(N2CCOCC2)nc1)N1CCC(c2ncnc3cc(OCCN4CCOC4=O)ccc23)CC1 [Example 91, 4-{7-[2-(2-Oxo-oxazolidin-3-yl)-ethoxy]-quinazolin-4-yl}-piperidine-1-carboxylic acid (6-morpholin-4-yl-pyridin-3-yl)-amide]
